Assay results: US8658794B2, “8-methyl-1-phenyl-imidazol[1,5-a]pyrazine compounds as Lck inhibitors and uses thereof” (Merck Sharp & Dohme B.V., priority 2010, dated 2014)

target: T1, N-terminal His6-tagged recombinant full-length human Lck (Homo sapiens, UniProt P06239); assay: Lck IMAP assay; assay type: biochemical; details: ATP 6 μM (KM,ATP), enzyme pre-incubated with compounds for 60 minutes, values given as bins
T1 construct: N-terminal His6-tagged recombinant full-length human Lck; His6 (N); purchased Millipore
T1 sequence (P06239 whole entry): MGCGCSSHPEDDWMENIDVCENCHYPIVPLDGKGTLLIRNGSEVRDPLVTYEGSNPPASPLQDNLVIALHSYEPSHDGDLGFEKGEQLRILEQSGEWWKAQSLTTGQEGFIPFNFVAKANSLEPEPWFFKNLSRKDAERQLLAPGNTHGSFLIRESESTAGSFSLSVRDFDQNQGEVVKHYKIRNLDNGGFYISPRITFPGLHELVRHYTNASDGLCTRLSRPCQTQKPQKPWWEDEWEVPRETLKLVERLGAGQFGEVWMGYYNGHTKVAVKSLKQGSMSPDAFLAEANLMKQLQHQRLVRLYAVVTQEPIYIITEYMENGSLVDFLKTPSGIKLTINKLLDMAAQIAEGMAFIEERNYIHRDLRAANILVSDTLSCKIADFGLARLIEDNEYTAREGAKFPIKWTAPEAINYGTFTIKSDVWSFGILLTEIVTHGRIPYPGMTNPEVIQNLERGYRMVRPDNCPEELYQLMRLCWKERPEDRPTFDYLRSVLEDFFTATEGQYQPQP
Excerpt: Inhibition of kinase activity can be measured using the Immobilized Metal Assay for Phosphochemicals (IMAP) assay. IMAP is a homogeneous fluorescence polarization (FP) assay based on affinity capture of phosphorylated peptide substrates. IMAP uses fluorescein-labeled peptide substrates that, upon phosphorylation by a protein kinase, bind to so-called IMAP nanoparticles, which are derivatized with trivalent metal complexes. Binding causes a change in the rate of the molecular motion of the peptide, and results in an increase in the FP value observed for the fluorescein label attached to the substrate peptide (Gaudet et al. A homogeneous fluorescence polarization assay adaptable for a range of protein serine/threonine and tyrosine kinases. J. Biomol. Screen (2003) 8, 164-175).
Enzyme used was N-terminal His6-tagged recombinant full-length human Lck from Millipore. Phosphorylation substrate was a fluorescein-labeled peptide (5FAM-KVEKIGEGTYGVV—NH2) derived from p34cdc2 from Molecular Devices. Enzymes, substrate and ATP were diluted in Kinase Reaction buffer (10 mM Tris-HCl, 10 mM MgCl2, 0.01% Tween-20, 0.05% NaN3 pH 7.2, 1 mM DTT (dithiotreitol). The final volume at the kinase reaction step of the assay in the 384-well plate was 20 μl. Final amount of enzyme in the reaction was 0.1 U/ml. Enzyme was pre-incubated with compounds diluted in 1% DMSO (dimethylsulfoxide) for 60 minutes at room temperature in the dark. Subsequently, peptide substrate to a final concentration of 100 nM, and ATP to a final concentration of 6 μM were added and the mix was incubated for 120 minutes at room temperature in the dark. IMAP progressive binding buffer (75% 1× buffer A, 25% 1× buffer B with 1:600 Progressive Binding Reagent; Molecular Devices) was added, followed by an incubation step of 60 minutes at room temperature in the dark. Finally, the FP signal was read on an Envision Multilabel reader (Perkin Elmer).
All biochemical assays were run at KM,ATP of the enzyme using non-saturated conditions, meaning that during the incubation time it was assured that the signal increase was linear with time. For all biochemical assays a reference standard was used on each plate.
Ten point serial dilutions using a √10 dilution factor were used for dose response testing of compounds. Starting concentration was 10^-6M for Lck IMAP assays. Dose-response curves were run as two experiments on duplicate plates (N=1; n=2). All data was normalized to percentage effect based on maximum (Max) and minimum (Min) control values. On every 384 assay plate 16 wells were used as minimum wells (wells with ATP, 0% effect) and 16 wells were used as maximum wells (wells without ATP, 100% effect). 16 wells were used for measuring the background signal, obtained from a kinase reaction containing all constituents except the labeled peptide substrate. Percentage effect was plotted against log dilution concentration of compound to obtain sigmoid dose response curves. pIC50 values were calculated using ActivityBase.

IC50 [nM]	Compound
≤ 10	Cc1nccn2c1c(-c1ccc(NC(=O)c3cc4ccccc4n3C)cc1)nc2[C@H]1CC[C@H](N2CCN(C)CC2)CC1 [Example 61, 1-Methyl-N-(4-(8-methyl-3-((trans)-4-(4-methylpiperazin-1-yl)cyclohexyl)imidazo[1,5-a]pyrazin-1-yl)phenyl)-1H-indole-2-carboxamide]
≤ 10	COc1cc(-c2nc(C3CCN(CC(=O)N(C)C)CC3)n3ccnc(C)c23)ccc1NC(=O)c1cc2ccccc2n1C [Example 18, N-(4-(3-(1-(2-(dimethylamino)-2-oxoethyl)piperidin-4-yl)-8-methylimidazo[1,5-a]pyrazin-1-yl)-2-methoxyphenyl)-1-methyl-1H-indole-2-carboxamide]
≤ 10	COc1cc(-c2nc(C3CCNCC3)n3ccnc(C)c23)ccc1NC(=O)c1cc2c(OC)cccc2n1C [Example 17, 4-Methoxy-N-(2-methoxy-4-(8-methyl-3-(piperidin-4-yl)imidazo[1,5-a]pyrazin-1-yl)phenyl)-1-methyl-1H-indole-2-carboxamide]
10 to 100	COc1cc(-c2nc([C@H]3CC[C@H](OC(=O)NC4CCCC4)CC3)n3ccnc(C)c23)ccc1NC(=O)c1cc2c(OC)cccc2n1C [Example 51, (trans)-4-(1-(3-Methoxy-4-(4-methoxy-1-methyl-1H-indole-2-carboxamido)phenyl)-8-methylimidazo[1,5-a]pyrazin-3-yl)cyclohexyl cyclopentylcarbamate]
10 to 100	COc1cc(-c2nc(N3CCn4c(nnc4C(F)(F)F)C3)n3ccnc(C)c23)ccc1NC(=O)c1cc2c(OC)cccc2n1C [Example 37, 4-Methoxy-N-(2-methoxy-4-(8-methyl-3-(3-(trifluoromethyl)-5,6-dihydro-[1,2,4]triazolo[4,3-a]pyrazin-7(8H)-yl)imidazo[1,5-a]pyrazin-1-yl)phenyl)-1-methyl-1H-indole-2-carboxamide]
≤ 10	COc1cc(-c2nc([C@H]3CC[C@H](N4CCN(C)CC4)CC3)n3ccnc(C)c23)ccc1NC(=O)c1cc2ccccc2n1C [Example 33b, N-(2-methoxy-4-(8-methyl-3-((trans)-4-(4-methylpiperazin-1-yl)cyclohexyl)imidazo[1,5-a]pyrazin-1-yl)phenyl)-1-methyl-1H-indole-2-carboxamide 2,2,2-trifluoroacetate]
≤ 10	COc1cc(-c2nc(N3CCN(C)CC3)n3ccnc(C)c23)ccc1NC(=O)c1cc2ccccc2n1C [Example 23, N-(2-methoxy-4-(8-methyl-3-(4-methylpiperazin-1-yl)imidazo[1,5-a]pyrazin-1-yl)phenyl)-1-methyl-1H-indole-2-carboxamide]
≤ 10	COc1cc(-c2nc(C3(C)COC3)n3ccnc(C)c23)ccc1NC(=O)c1cc2c(OC)cccc2n1C [Example 13, 4-Methoxy-N-(2-methoxy-4-(8-methyl-3-(3-methyloxetan-3-yl)imidazo[1,5-a]pyrazin-1-yl)phenyl)-1-methyl-1H-indole-2-carboxamide]
10 to 100	COc1cc(-c2nc(C3CN(C4CCOCC4)C3)n3ccnc(C)c23)ccc1NC(=O)c1cc2c(OC)cccc2n1C [Example 16, 4-Methoxy-N-(2-methoxy-4-(8-methyl-3-(1-(tetrahydro-2H-pyran-4-yl)azetidin-3-yl)imidazo[1,5-a]pyrazin-1-yl)phenyl)-1-methyl-1H-indole-2-carboxamide]
≤ 10	CCC[C@H](C)OC(=O)Nc1ccc(-c2nc([C@H]3CC[C@H](CN)CC3)n3ccnc(C)c23)cc1OC [Example 60, (S)-Pentan-2-yl 4-(3-((trans)-4-(aminomethyl)cyclohexyl)-8-methylimidazo[1,5-a]pyrazin-1-yl)-2-methoxyphenylcarbamate]
≤ 10	CCC[C@H](C)OC(=O)Nc1ccc(-c2nc([C@H]3CC[C@H](N(CCOC)C(C)=O)CC3)n3ccnc(C)c23)cc1OC [Example 29, (S)-Pentan-2-yl 2-methoxy-4-(3-((trans)-4-(N-(2-methoxyethyl)acetamido)cyclohexyl)-8-methylimidazo[1,5-a]pyrazin-1-yl)phenylcarbamate]
≤ 10	COc1cc(-c2nc([C@H]3CC[C@H](N4CCN(C)CC4)CC3)n3ccnc(C)c23)ccc1NC(=O)c1cc2ccsc2n1C [Example 56, N-(2-methoxy-4-(8-methyl-3-((trans)-4-(4-methylpiperazin-1-yl)cyclohexyl)imidazo[1,5-a]pyrazin-1-yl)phenyl)-6-methyl-6H-thieno[2,3-b]pyrrole-5-carboxamide]
≤ 10	CCC[C@H](C)OC(=O)Nc1ccc(-c2nc([C@H]3CC[C@H](CN(C)C)CC3)n3ccnc(C)c23)cc1OC [Example 65, (S)-Pentan-2-yl 4-(3-((trans)-4-((dimethylamino)methyl)cyclohexyl)-8-methylimidazo[1,5-a]pyrazin-1-yl)-2-methoxyphenylcarbamate]
≤ 10	COc1cc(-c2nc([C@H]3CC[C@H](O)CC3)n3ccnc(C)c23)ccc1NC(=O)c1cc2c(OC)cccc2n1C [Example 6, N-(4-(3-((trans)-4-hydroxycyclohexyl)-8-methylimidazo[1,5-a]pyrazin-1-yl)-2-methoxyphenyl)-4-methoxy-1-methyl-1H-indole-2-carboxamide]
≤ 10	CCC[C@H](C)OC(=O)Nc1ccc(-c2nc([C@H]3CC[C@@H](N4CC(F)(F)C4)CC3)n3ccnc(C)c23)cc1OC [Example 26g, (S)-pentan-2-yl 4-(3-((cis)-4-(3,3-difluoroazetidin-1-yl)cyclohexyl)-8-methylimidazo[1,5-a]pyrazin-1-yl)-2-methoxyphenylcarbamate]
≤ 10	COc1cc(-c2nc(C3CCN(C)C(=O)C3)n3ccnc(C)c23)ccc1NC(=O)c1cc2c(OC)cccc2n1C (stereo not shown) [Example 38, 4-Methoxy-N-(2-methoxy-4-(8-methyl-3-(1-methyl-2-oxopiperidin-4-yl)imidazo[1,5-a]pyrazin-1-yl)phenyl)-1-methyl-1H-indole-2-carboxamide]
100 to 1000	COc1cc(-c2nc([C@H]3CC[C@H](N4CC(F)(F)C4)CC3)n3ccnc(C)c23)ccc1N(C)C(=O)OC(C)C [Example 41, Isopropyl 4-(3-((trans)-4-(3,3-difluoroazetidin-1-yl)cyclohexyl)-8-methylimidazo[1,5-a]pyrazin-1-yl)-2-methoxyphenyl(methyl)carbamate]
≤ 10	COc1cc(-c2nc([C@H]3CC[C@@H](N4CC(F)(F)C4)CC3)n3ccnc(C)c23)ccc1NC(=O)c1cc2c(OC)cccc2n1C [Example 10, N-(4-(3-((cis)-4-(3,3-difluoroazetidin-1-yl)cyclohexyl)-8-methylimidazo[1,5-a]pyrazin-1-yl)-2-methoxyphenyl)-4-methoxy-1-methyl-1H-indole-2-carboxamide]
≤ 10	COc1cc(-c2nc(N3CCN(C4CCOCC4)CC3)n3ccnc(C)c23)ccc1NC(=O)c1cc2c(OC)cccc2n1C [Example 34, 4-Methoxy-N-(2-methoxy-4-(8-methyl-3-(4-(tetrahydro-2H-pyran-4-yl)piperazin-1-yl)imidazo[1,5-a]pyrazin-1-yl)phenyl)-1-methyl-1H-indole-2-carboxamide]
≤ 10	COc1cc(-c2nc(C3CCOCC3)n3ccnc(C)c23)c(F)cc1NC(=O)c1cc2c(OC)cccc2n1C [Example 46, N-(5-fluoro-2-methoxy-4-(8-methyl-3-(tetrahydro-2H-pyran-4-yl)imidazo[1,5-a]pyrazin-1-yl)phenyl)-4-methoxy-1-methyl-1H-indole-2-carboxamide]
≤ 10	COc1cc(-c2nc([C@@H]3CCN(C(=O)CN(C)C)C3)n3ccnc(C)c23)ccc1NC(=O)c1cc2c(OC)cccc2n1C [Example 33e, (R)—N-(4-(3-(1-(2-(dimethylamino)acetyl)pyrrolidin-3-yl)-8-methylimidazo[1,5-a]pyrazin-1-yl)-2-methoxyphenyl)-4-methoxy-1-methyl-1H-indole-2-carboxamide]
≤ 10	COc1cccc2c1cc(C(=O)Nc1ccc(-c3nc([C@H]4CC[C@H](N5CCN(C)CC5)CC4)n4ccnc(C)c34)cc1O)n2C [Example 62, N-(2-hydroxy-4-(8-methyl-3-((trans)-4-(4-methylpiperazin-1-yl)cyclohexyl)imidazo[1,5-a]pyrazin-1-yl)phenyl)-4-methoxy-1-methyl-1H-indole-2-carboxamide]
